Experimental data taken from US7462614B2, “Imidazotriazine compounds” (Smithkline Beecham Corporation, priority 2003, dated 2008).

What was measured:
MDA435 = experiment: cells; settings: MDA435, 72 h, read-out: MeB Cell Line IC50
COLO205 = experiment: cells; settings: Homo sapiens, COLO 205, 72 h, read-out: MeB Cell Line IC50
[1] = system: colon (HCT116) tumor cell line; experiment: Methylene Blue Growth Inhibition Assay, HCT116; format: cell-based; settings: Homo sapiens, HCT-116, 72 h; HCT116, 3 days; read-out: MeB Cell Line IC50
Excerpt: (§1) II. Methylene Blue Growth Inhibition Assay
(§2) Medium was removed by aspiration.

[2] = system: prostate (PC3) tumor cell line; experiment: Methylene Blue Growth Inhibition Assay, PC3; format: cell-based; settings: Homo sapiens, 72 h; PC3, 3 days; read-out: MeB Cell Line IC50
Excerpt: as §1, §2

[3] = system: breast tumor (MCF7) cell line; experiment: Methylene Blue Growth Inhibition Assay, MCF7; format: cell-based; settings: Homo sapiens, 72 h; MCF7, 3 days; read-out: MeB Cell Line IC50
Excerpt: as §1, §2

[4] = system: lung (H460) tumor cell line; experiment: Methylene Blue Growth Inhibition Assay, H460; format: cell-based; settings: Homo sapiens, NCI-H460, 72 h; H460, 3 days; read-out: MeB Cell Line IC50
Excerpt: as §1, §2

[5] = system: Normal Human foreskin fibroblasts (HFF); experiment: Methylene Blue Growth Inhibition Assay, HFF; format: cell-based; settings: 72 h, 3 days, read-out: MeB Cell Line IC50
Excerpt: as §1, §2

SAOS2 = experiment: cells; settings: Homo sapiens, SAOS-2, 72 h, read-out: MeB Cell Line IC50
IMR90 = experiment: cells; settings: Homo sapiens, IMR-90, 72 h, read-out: MeB Cell Line IC50
[6] = system: colon (RKO) tumor cell line; experiment: Methylene Blue Growth Inhibition Assay, RKO; format: cell-based; settings: Homo sapiens, 72 h, 3 days, read-out: MeB Cell Line IC50
Excerpt: as §1, §2

[7] = target: T1, truncated human PLK1 (kinase domain) (Homo sapiens, UniProt P53350); experiment: Assay for Inhibition of PLK1 (33P SPA enzyme activity); format: biochemical; settings: 1 μM ATP, 2 nM enzyme; read-out: Ave pIC50 PLK Enzyme Inhibition (converted)
T1 construct: made in house; host or cells: baculovirus-infected T. ni insect cells
T1 sequence (P53350 21-346): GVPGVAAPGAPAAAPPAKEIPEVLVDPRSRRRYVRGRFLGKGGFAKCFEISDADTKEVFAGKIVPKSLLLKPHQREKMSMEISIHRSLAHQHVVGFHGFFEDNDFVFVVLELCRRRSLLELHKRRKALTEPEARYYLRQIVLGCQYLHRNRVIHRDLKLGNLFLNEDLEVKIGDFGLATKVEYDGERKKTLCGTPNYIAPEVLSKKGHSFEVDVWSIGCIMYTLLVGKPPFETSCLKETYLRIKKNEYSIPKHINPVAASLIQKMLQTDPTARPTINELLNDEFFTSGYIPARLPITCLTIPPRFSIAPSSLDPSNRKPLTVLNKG
Procedure, shortened: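 Enzyme is the 6×His-tagged PLK1 kinase domain, purified by Ni-chelate and gel filtration. Compounds added in DMSO, then enzyme; reaction stopped with EDTA/streptavidin SPA bead mix containing 60 μM ATP, read by 33P scintillation proximity.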

SMILES	IC50 (MDA435)	IC50 (COLO205)	IC50 [1]	IC50 [2]	IC50 [3]	IC50 [4]	IC50 [5]	IC50 (SAOS2)	IC50 (IMR90)	IC50 [6]	IC50 [7]
COc1cc(Nc2ncc3c(C)nc(-c4ccccc4)n3n2)cc(OC)c1OC [Example 1, 5-Methyl-7-phenyl-N-(3,4,5-trimethoxyphenyl)imidazo[5,1-f][1,2,4]triazin-2-amine]	1 to 10 µM	1 to 10 µM	1 to 10 µM	10 to 30 µM	1 to 10 µM	1 to 10 µM	10 to 30 µM	1 to 10 µM	10 to 30 µM	1 to 10 µM	–
COc1cc(Nc2ncc3c(C)nc(-c4cccc(C#N)c4)n3n2)cc(OC)c1OC [Example 8, 3-{5-Methyl-2-[(3,4,5-trimethoxyphenyl)amino]imidazo[5,1-f][1,2,4]triazin-7-yl}benzonitrile]	–	–	10 to 30 µM	10 to 30 µM	10 to 30 µM	10 to 30 µM	10 to 30 µM	–	–	10 to 30 µM	< 0.1 µM
COc1cc(Nc2ncc3c(C)nc(-c4cccc(C(N)=O)c4)n3n2)cc(OC)c1OC [Example 16, 3-{5-Methyl-2-[(3,4,5-trimethoxyphenyl)amino]imidazo[5,1-f][1,2,4]triazin-7-yl}benzamide]	–	–	10 to 30 µM	10 to 30 µM	10 to 30 µM	10 to 30 µM	10 to 30 µM	–	–	10 to 30 µM	0.1 to 10 µM
COc1cc(Nc2ncc3c(C)nc(-c4cccc(Br)c4)n3n2)cc(OC)c1OC [Example 9, 7-(3-Bromophenyl)-5-methyl-N-(3,4,5-trimethoxyphenyl)imidazo-[5,1-f][1,2,4]triazin-2-amine]	–	–	1 to 10 µM	10 to 30 µM	1 to 10 µM	1 to 10 µM	10 to 30 µM	–	–	1 to 10 µM	< 0.1 µM
Cc1nc(-c2cccc(C(F)(F)F)c2)n2nc(Nc3cccc(S(N)(=O)=O)c3)ncc12 [Example 41, 3-({5-Methyl-7-[3-(trifluoromethyl)phenyl]imidazo[5,1-f][1,2,4]triazin-2-yl}amino)benzenesulfonamide]	–	–	1 to 10 µM	10 to 30 µM	1 to 10 µM	1 to 10 µM	10 to 30 µM	–	–	1 to 10 µM	0.1 to 10 µM
Cc1nc(-c2ccccc2)n2nc(Nc3cccc(CCO)c3)ncc12 [Example 19, 2-{3-[(5-Methyl-7-phenylimidazo[5,1-f][1,2,4]triazin-2-yl)amino]phenyl}ethanol]	–	–	1 to 10 µM	10 to 30 µM	1 to 10 µM	1 to 10 µM	10 to 30 µM	–	–	1 to 10 µM	< 0.1 µM
Cc1nc(-c2cccc(C(F)(F)F)c2)n2nc(Nc3cccc(CNC(=O)OC(C)(C)C)c3)ncc12 [Example 48, tert-Butyl 3-({5-methyl-7-[3-(trifluoromethyl)phenyl]imidazo[5,1-f][1,2,4]triazin-2-yl}amino)benzylcarbamate]	–	–	10 to 30 µM	10 to 30 µM	10 to 30 µM	10 to 30 µM	10 to 30 µM	–	–	1 to 10 µM	0.1 to 10 µM
COc1cc(Nc2ncc3c(C)nc(-c4ccccc4O)n3n2)cc(OC)c1OC [Example 22, 2-{5-Methyl-2-[(3,4,5-trimethoxyphenyl)amino]imidazo[5,1-f][1,2,4]triazin-7-yl}phenol]	–	–	10 to 30 µM	10 to 30 µM	10 to 30 µM	10 to 30 µM	10 to 30 µM	–	–	10 to 30 µM	0.1 to 10 µM
CC(=O)Nc1ccc(Nc2ncc3c(C)nc(-c4cccc(C(F)(F)F)c4)n3n2)cc1 [Example 46, N-[4-({5-Methyl-7-[3-(trifluoromethyl)phenyl]imidazo[5,1-f][1,2,4]triazin-2-yl}amino)phenyl]acetamide]	–	–	1 to 10 µM	10 to 30 µM	1 to 10 µM	10 to 30 µM	10 to 30 µM	–	–	1 to 10 µM	< 0.1 µM
